These results are taken from paper PMC7764606 (Cancers, 2020).

For one data set, the target named is T1, recombinant AKR1C3 (Homo sapiens, UniProt P42330).
T1 construct: made in house; host or cells: Escherichia coli
T1 sequence (P42330 1-323): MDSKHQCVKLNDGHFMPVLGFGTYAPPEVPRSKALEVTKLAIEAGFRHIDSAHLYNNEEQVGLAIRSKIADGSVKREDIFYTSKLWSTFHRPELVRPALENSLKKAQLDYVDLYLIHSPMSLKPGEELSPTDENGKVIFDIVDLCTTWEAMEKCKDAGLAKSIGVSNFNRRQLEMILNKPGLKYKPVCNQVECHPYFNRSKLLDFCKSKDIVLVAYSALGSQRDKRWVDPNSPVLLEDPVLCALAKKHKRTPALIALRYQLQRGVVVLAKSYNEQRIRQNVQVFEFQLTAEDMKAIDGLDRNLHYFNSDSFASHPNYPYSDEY
Description: Reduction of Dau by recombinant AKR1C3 (UHPLC detection of Dau-ol). Format: biochemical. As to conditions: for reduction of AKR1C3 activity (Dau reduction): Dau 500 µM, relative to DMSO; for Ki: read-out: Ki^app (Morrison equation for tight-binding inhibitors). Here is the method: (§1) Human recombinant CREs (CBR1, AKR1A1, 1B1, 1B10, 7A2, and 1C3) were produced by an Escherichia coli expression system as per methods described previously. For the inhibitory assay, each recombinant enzyme, CBR1 (1 µg), AKR1A1 (1 µg), AKR1B1 (5 µg), AKR1B10 (5 µg), AKR7A2 (3 µg), or AKR1C3 (1.5 µg) was incubated with BTK inhibitors at different concentrations (10 and 50 µM) and the substrate Dau (500 µM). For analysis using the Lineweaver-Burk plot, 1.5 µg of recombinant AKR1C3 was incubated with DMSO or BTK inhibitors (1, 5, and 10 µM) and Dau (200, 400, 600, 800, 1000, and 2000 µM). […] The incubations and further metabolite detection were further performed by using ultra-high-performance liquid chromatography (UHPLC) as per methods described previously.

Another data set deals with T2, recombinant AKR1B10.
T2 construct: made in house; host or cells: Escherichia coli
The data set can be described thus: Reduction of Dau by recombinant AKR1B10 (UHPLC detection of Dau-ol). The data set is classed as biochemical, Human. The settings on record: Dau 500 µM, relative to DMSO. How it is done:
as §1

Data set [1] concerns AKR1C3 expression in A549 cells. The data set can be described thus: AKR1C3 protein levels in A549 cells by western blotting. Format: cell-based, human. As to conditions: 1, 5 and 10 µM, 72 h, western blot relative to β-actin. How it is done:
A549 cells were incubated with DMSO or BTK inhibitors (1, 5, and 10 µM) for 72 h, and then total protein was extracted for analysis of AKR1C3 expression by western blotting (WB) as per methods described previously. A representative WB is shown for IBR (A) and ACA (B) incubations, and bars represent AKR1C3 protein levels as determined by densitometry relative to β-actin (n = 3, mean ± SD). Uncropped images from WB are available in Figure S1 in the Supplementary Materials. On the other hand, HCT116-EV and HCT116-C3 cells were treated with increasing concentrations of IBR (C) and ACA (D) for 72 h, and their viability was assessed by MTT assay. Graphs represent a comparison of the dose-response curves for percentages of cell viability in each cell line (n = 6, mean ± SD).
Background: A western blot detects proteins with antibodies after separation by electrophoresis.

For a further data set, the system named is A549 cells. The data set can be described thus: MTT cell viability, A549 cells (incl. Chou-Talalay analysis). Format: cell-based, human. Here is the method: (§2) Twenty-four hours prior to the experiment, transfected HCT116 cells (8 × 10^3 cells/well) or A549 cells (5 × 10^3 cells/well) were seeded in 96-well plates. The cell culture medium was replaced with fresh medium containing increasing amounts of Dau (final concentrations: 0.01, 0.05, 0.1, 0.25, 0.5, 0.75, 1, and 10 µM) with or without BTK inhibitors (final concentrations: 1, 5, and 10 µM). After 72 h of incubation under standard conditions (37 °C, 5% CO2), cell viability was assessed by MTT (Sigma-Aldrich, Prague, Czech Republic) assay. For this, 50 µL of the MTT solution (3 mg/mL) was added to each well and incubated for 30 min. The supernatant was collected, and the cell monolayers were dissolved in 100 µL of DMSO. The absorbance was measured at 570 and 690 nm by a microplate reader Infinite M200 (Tecan, Salzburg, Austria), and the background values at 690 nm were subtracted from the absorbance obtained at 570 nm. The half-maximal inhibitory concentrations (IC50) were calculated using GraphPad Prism 8.1.2. The drug combination pharmacodynamics were determined by the Chou-Talalay method using the CompuSyn ver. 3.0.1 software (ComboSyn Inc., Paramus, NJ, USA).

Another data set relates to HCT116-EV cells. The data set can be described thus: MTT cell viability, HCT116-EV cells (incl. Chou-Talalay analysis). Format: cell-based, human. Here is the method:
(§3) HCT116 cells were seeded (1.25 × 10^5 cells/well) in 24-well plates and cultured for 24 h. For the transient expression of the recombinant human AKR1C3, the cells were transfected with a pCI_AKR1C3 or empty pCI plasmid as control (previously described in a study by Hofman et al.) according to the manufacturer’s instructions (jetPRIME® Transfection Reagent; Polyplus Transfection®, Illkirch, France). For each 24-well plate, a mixture of 0.75 µL of the jetPRIME® Transfection Reagent and 0.25 µg of plasmid was incubated for 10 min at room temperature. Then, polyplexes were added to the HCT116 cells with 0.5 mL of fresh DMEM supplemented with 10% FBS and incubated for 24 h (37 °C, 5% CO2). The expression of recombinant AKR1C3 was verified by western blotting as per methods described previously.
as §2

Data set [2] concerns T3, AKR1C3 in HCT116-C3 cells.
T3 construct: expressed in transfected cells; host or cells: HCT116
Description: Dau metabolism to Dau-ol in HCT116 cells transiently overexpressing AKR1C3. The settings on record: 5 h. Format: cell-based, human. Here is the method: as §3
After transfection of HCT116 cells or seeding of A549 cells (25 × 10^3 cells/well) in 24-well plates for 24 h, the medium was harvested and replaced with DMEM supplemented with 10% FBS containing 1 µM daunorubicin, with or without increasing concentrations (1, 5, and 10 μM) of BTK inhibitors. Cells were incubated (37 °C, 5% CO2) for 2.5 and 5 h (transfected HCT116) or only 5 h (A549). Then, the medium was collected and the cells were lysed in lysis buffer (25 mM Tris, 150 mM NaCl, and 1% Triton X-100, pH 7.8) for 15 min at room temperature. The collected medium was combined with cell lysate for further extraction and analysis of metabolites, as per methods described previously.

For data set [3] the following is noted: single oral dose of 140 mg; cited from earlier work.
Setting [4] is: BTK-inhibitor 5 µM + Dau 0.25 µM.
Where [5] appears, read: BTK-inhibitor 5 µM + Dau 0.50 µM.

Where two headings read alike, the source gives them in different places.

With `COc1cccc2c1C(=O)c1c(O)c3c(c(O)c1C2=O)C[C@@](O)(C(C)=O)C[C@@H]3O[C@H]1C[C@H](N)[C@H](O)[C@H](C)O1` [Dau, daunorubicin], the Km at recombinant AKR1C3 (substrate Dau, recombinant AKR1C3, read-out: Km used in the Morrison equation) stood at 387 ± 36 µM.

With `C=CC(=O)N1CCC[C@@H](n2nc(-c3ccc(Oc4ccccc4)cc3)c3c(N)ncnc32)C1` [Ibrutinib, ibrutinib], the results for the “inhibition of AKR1B10 activity (Dau reduction)” value with recombinant AKR1B10 (10 µM BTK inhibitor) and with recombinant AKR1B10 (50 µM BTK inhibitor) were 48.18% ± 2.10% and 74.97% ± 0.87%, respectively. The “effect on expression (protein levels) of AKR1C3” value in data set [1] was “negligible or absence of effects”. Moreover, the “Fraction affected (Fa %)” value amounted to 21.92 ± 2.37% with A549 cells (BTK-inhibitor 1 µM + Dau 0.01 µM); 43.16 ± 2.59% in the data set with A549 cells (BTK-inhibitor 1 µM + Dau 0.25 µM); 71.16 ± 6.46% in the data set with A549 cells (BTK-inhibitor 1 µM + Dau 0.50 µM); 86.63 ± 0.72% in the data set with A549 cells (BTK-inhibitor 1 µM + Dau 0.75 µM); 91.12 ± 0.72% in the data set with A549 cells (BTK-inhibitor 1 µM + Dau 1.00 µM); 33.76 ± 1.79% in the data set with A549 cells (BTK-inhibitor 5 µM + Dau 0.01 µM). Besides, the “Fraction affected (Fa %)” value was 54.13 ± 5.98% in the data set with A549 cells (setting [4]); 85.67 ± 2.02% in the data set with A549 cells (setting [5]); 91.76 ± 0.78% in the data set with A549 cells (BTK-inhibitor 5 µM + Dau 0.75 µM); 94.00 ± 0.28% in the data set with A549 cells (BTK-inhibitor 5 µM + Dau 1.00 µM); 58.13 ± 12.2% in the data set on HCT116-EV cells (setting [4]); 77.56 ± 6.90% in the data set on HCT116-EV cells (setting [5]). Besides, the “Fraction affected (Fa %)” value with HCT116-EV cells (BTK-inhibitor 10 µM + Dau 0.25 µM) came out at 58.56 ± 7.79%; in the data set with HCT116-EV cells (BTK-inhibitor 10 µM + Dau 0.50 µM) it was 81.92 ± 4.25%. Also, the “reduction of AKR1C3 activity (Dau reduction)” value is listed as 92.17% ± 3.43% on recombinant AKR1C3 (10 µM BTK inhibitor) and 96.41% ± 1.48% at recombinant AKR1C3 (50 µM BTK inhibitor). Also, the Ki was determined as 312 nM on recombinant AKR1C3 (AKR1C3 0.005 mg/mL (0.135 μM)), 332 nM at recombinant AKR1C3 (AKR1C3 0.015 mg/mL (0.405 μM)) and 354 nM on recombinant AKR1C3 (AKR1C3 0.030 mg/mL (0.811 μM)). In addition, the “mode of inhibition (Lineweaver-Burk plot)” value at recombinant AKR1C3 (recombinant AKR1C3 with increasing Dau) is recorded as “non-competitive/mixed”. The IC50 with HCT116-EV cells (Homo sapiens, 72 h MTT, read-out: IC50 of BTK inhibitor alone (cell viability)) is 17 µM. Also, the figures for the “decrease in AKR1C3 activity (Dau to Dau-ol)” value in data set [2] (1 µM BTK inhibitor + 1 µM Dau), in data set [2] (5 µM BTK inhibitor + 1 µM Dau) and in data set [2] (10 µM BTK inhibitor + 1 µM Dau) were 29.40% ± 11.55%, 45.16% ± 0.86% and 60.72% ± 6%, respectively. In data set [3], the “mean Cmax” value is recorded as 37.1 ng/mL.

For orientation: Km means the concentration of substrate that gives half-maximal velocity. In general, IC50 refers to the concentration at which inhibition is half-maximal.
